According to patent US20260140118A1, “COMBINATION DRUG” (CHUGAI SEIYAKU KABUSHIKI KAISHA, priority 2022, published 2026):
pIC50: −log10 of the molar value. Read-outs that look alike come from different tables or passages of the source.

How the values were obtained:
[1] = test system: NCI-H2228 cells (parental cells); test: Cell growth suppression test on NCI-H2228 parental cells; assay type: cell-based, human; details: for pIC50: Table 3, nine screening hits; for Sensitivity of NCI-H2228 cells: parental cells
Experimental: (§1) Next, for these nine compounds, a cell growth suppression test was conducted, and the ratio of IC50 of DTP cells with respect to the parental line was calculated.

[2] = test system: DTP cells; test: Cell growth suppression test on DTP cells; assay type: cell-based, human
Experimental: as §1

[3] = test system: NCI-H2228 cells (parental cells); details: Western blotting, STAT3, AKT, ERK, S6
Experimental: (§2) The cells were seeded on a 6-well plate, and on the following day, a drug was added, followed by culturing for a certain time. A Sally Sue or Jess capillary electrophoresis-based protein analysis system (ProteinSimple, Santa Clara, CA, USA) was charged with protein lysates in equal amounts for each of Western blotting methods. As the antibody, antibodies to ALK, phospho-ALK, FGFR1, FGFR2, FGFR3, FGFR4, ERK, phospho-ERK, AKT, phospho-AKT, EGFR, phospho-EGFR, MET, β-actin, phospho-MET, HER2, CD44, BIM, VIM, CDH1, S6, pS6 and STAT3 (Cell Signaling Technology, Danvers, MA, USA), Cleaved PARP, phospho-HER2, FGF2 and FGF12 (Abcam) were used.

[4] = test system: DTP cells; details: Western blotting; STAT3, AKT, ERK, S6, FGFR1
Experimental: as §2

[5] = test system: alectinib-resistant NCI-H2228 cells; test: Cell growth test on alectinib-resistant NCI-H2228 cells; assay type: cell-based; details: Homo sapiens
[6] = test system: NCI-H2228 tumor; test: NCI-H2228 subcutaneous xenograft in nude mice; assay type: in vivo, mouse; details: oral administration for 11 days
Experimental: From The Jackson Laboratory Japan, Inc. (Yokohama, Japan), 4 to 5-week-old male BALB/c-nu/nu mice (CAnN Cg-Foxn1/Cr1Cr1j nu/nu) were purchased. Cells were subcutaneously inoculated to the right flank region at 5×10^6 per mouse. The tumor volume and the body weight were measured twice weekly, where the tumor volume was estimated as below. Tumor volume=ab^2/2 (a and b indicate the length and the width of the tumor, respectively. After the establishment of the tumor, the mice were assigned randomly to a solvent administration group, drug administration groups, or a combined administration group identical in dose and schedule to the group receiving each single drug, followed by oral administration for 11 days in a row.

[7] = test system: NCI-H2228 cells (parental cells); test: Cell growth suppression test on NCI-H2228 parental cells; assay type: cell-based; details: Homo sapiens
[8] = test system: Regrown cells; test: Cell growth suppression test on regrown cells; assay type: cell-based, human; details: DTP cells cultured in alectinib-free medium for 37 days; for pIC50: Homo sapiens, Table 4
[9] = test system: DTP cells; test: Screening test of anticancer agent library (3114 compounds) for growth suppressive action on DTP cells; assay type: cell-based, human; details: DTP cells from NCI-H2228 treated with alectinib for 13 days
[10] = test system: FGFR1 or FGF2 knockout cells; test: Caspase-Glo 3/7 apoptosis assay and Western blotting in FGFR1 or FGF2 knockout cells; assay type: cell-based, human
Experimental: (§3) Using NEPA21 Electroporation, crRNA and Cas9 protein (Nippon Gene Co., Ltd.) targeting FGFR1 or FGF2 (Fasmac) were introduced into cells, two single clones were isolated from each clone cell with Smart Aliquotor (NT Science, Aichi, Japan), and it was confirmed by the Western blotting analysis that FGFR1 or FGF2 knockout cells lost FGFR1 or FGF2 protein (FIG. 5C).
The FGFR1 or FGF2 knockout cells obtained as described above were seeded on a 384-well plate, and on the following day, a drug was added at an indicated concentration, followed by culturing for an indicated time. The caspase 3 and 7 activity to signal induction of apoptosis in cells was measured using Caspase-Glo 3/7 Assay (Promega) in accordance with the protocol from the manufacturer. […] Each point represents an average+standard deviation from three experiments.

[11] = test system: SNU-2535 cells excessively expressing FGFR1 and FGF2; test: Cell growth and Western blotting in SNU-2535 cells excessively expressing FGFR1 and FGF2; assay type: cell-based, human; details: as compared to control cells or cells excessively expressing FGF2
From the text: For further confirming that both FGFR1 and FGF2 are necessary for cell survival in ALK inhibitor treatment, FGFR1 and FGF2 were excessively expressed in SNU2535 cells of ALK fusion gene-positive non-small cell lung cancer (NSCLC) (FIG. 7B).
FGFR1, FGF2, or a human coding sequence (CDS) as a control was synthesized, and cloned downstream of an EF1A promoter in a lentivirus vector with VectorBuilder (Chicago, Illinois, USA), and SNU-2535 cells were infected with a lentivirus vector. After 1 day, the culture solution was cultured in a puromycin-containing medium for 4 days, cells excessively expressing FGFR1 and FGF2 were selected, and clones were isolated with Smart Aliquotor. The expression of FGFR1 or FGF2 protein was confirmed by the Western blotting analysis.

[12] = test system: FGF2 knockout cells; test: Cell growth test on FGF2 knockout cells (CRISPR/Cas9); assay type: cell-based, human; details: two clones
From the text: as §3

[13] = test system: FGFR1 knockout cells; test: Cell growth test on FGFR1 knockout cells (CRISPR/Cas9); assay type: cell-based, human; details: two clones
From the text: as §3

[14] = Homo sapiens, Table 3, nine screening hits
[15] = NCI-H2228, 192 h, Example 4, treated for 8 days, single or in combination, read-out: IC50, NCI-H2228 Parental cells
[16] = NCI-H2228, Example 5, read-out: IC50 value, NCI-H2228 cells, FGFR inhibitor alone
[17] = Table 4, NCI-H2228, read-out: IC50, Parental cells
[18] = NCI-H2228, FIG. 5D, 5E, read-out: IC50 value, parental cells (comparison to knockout cells)
[19] = Homo sapiens, NCI-H2228, NCI-H2228

## C[C@]12CCC(=O)C=C1CC[C@@H]1[C@@H]2[C@@H](O)C[C@@]2(C)[C@H]1CC[C@]2(O)C(=O)CO [Hydrocortisone]
[1]; Homo sapiens, NCI-H2228
  pIC50: < 5.00
[2]; [14]
  pIC50: 5.67

## CCN1CCN(c2ccc(Nc3cc(N(C)C(=O)Nc4c(Cl)c(OC)cc(OC)c4Cl)ncn3)cc2)CC1 [BGJ398, N′-(2,6-dichloro-3,5-dimethoxyphenyl)-N-[6-[[4-(4-ethyl-1-piperazinyl)phenyl]amino]-4-pyrimidinyl]-N-methyl-urea]
[3]
  Action of inhibiting the phosphorylation of ALK/FGFR1 signal molecules in parental cells: not observed
[4]
  Action of inhibiting the phosphorylation of signal molecules in DTP cells: an action of inhibiting the phosphorylation of FGFR1 and phosphorylation of ERK
[1]
  Sensitivity of NCI-H2228 cells: did not exhibit sensitivity
[5]
  pIC50: < 6.00
[2]
  Sensitivity of DTP cells: exhibited sensitivity
[2]; Homo sapiens, NCI-H2228, 312 h
  pIC50: 7.24
[6]
  Tumor growth suppressive effect: did not suppress tumor growth
[7]; [15]
  pIC50: < 6.00
[7]; [16]
  pIC50: < 6.00
[7]; [17]
  pIC50: < 6.00
[8]
  Sensitivity of regrown cells as compared to DTP cells: lost sensitivity
  pIC50: < 6.00

## CN(C)C/C=C/C(=O)Nc1cc2c(Nc3ccc(F)c(Cl)c3)ncnc2cc1O[C@H]1CCOC1 [Afatinib]
[1]; Homo sapiens, NCI-H2228
  pIC50: 5.19
[2]; [14]
  pIC50: 5.30
[2]; Table 3
  IC50 Ratio of parental to DTP cells: 1.3

## c1cc(Nc2cc(C3CC3)[nH]n2)nc(Nc2ccc3nc[nH]c3c2)n1 [APY29]
[1]
  pIC50: 5.77
[2]; Table 3
  IC50 Ratio of parental to DTP cells: 3.8
[2]; Table 3, nine screening hits
  pIC50: 6.35
[9]
  Anti-proliferative effect on DTP cells: 0.68

## C=CC(=O)N1CCC(Oc2cc3c(Nc4ccc(Cl)c(Cl)c4F)ncnc3cc2OC)CC1 [Poziotinib]
[1]; Homo sapiens, NCI-H2228
  pIC50: 5.41
[2]; [14]
  pIC50: 5.86
[2]; Table 3
  IC50 Ratio of parental to DTP cells: 2.8

## CCc1cc2c(cc1N1CCC(N3CCOCC3)CC1)C(C)(C)c1[nH]c3cc(C#N)ccc3c1C2=O.Cl [Alectinib, 9-ethyl-6,6-dimethyl-8-[4-(morpholin-4-yl)-piperidin-1-yl]-11-oxo-6,11-dihydro-5H-benzo[b]carbazole-3-carbonitrile-hydrochloride]
[10]
  Induction of apoptosis (caspase 3 and 7 activity) in FGFR1 or FGF2 knockout cells as compared to parental cells: enhanced
[10]; Western blotting
  Action of inhibiting ERK in FGFR1 or FGF2 knockout cells as compared to parental cells: enhanced
[1]
  Sensitivity of NCI-H2228 cells: exhibited sensitivity
[5]
  pIC50: < 6.00
[2]
  Sensitivity of DTP cells: did not exhibit sensitivity
[2]; Homo sapiens, NCI-H2228, 312 h
  pIC50: < 6.00
[11]
  Cell growth suppressive effect in cells excessively expressing FGFR1 and FGF2: decreased
  Suppressive effect on the amount of phosphorylation of ERK in cells excessively expressing FGFR1 and FGF2: decreased
[7]; [15]
  pIC50: 6.66
[7]; [18]
  pIC50: 6.66
[7]; [17]
  pIC50: 6.66
[8]
  Sensitivity of regrown cells as compared to DTP cells: recovered sensitivity
  pIC50: 6.32
[12]; [19]
  pIC50: 8.25
[12]; NCI-H2228
  pIC50: 8.21
[13]; [19]
  pIC50: 8.27
[13]; NCI-H2228
  pIC50: 8.14

## C[C@H]1Oc2cc(cnc2N)-c2c(nn(C)c2C#N)CN(C)C(=O)c2ccc(F)cc21 [Lorlatinib, (10R)-7-amino-12-fluoro-2,10,16-trimethyl-15-oxo-10,15,16,17-tetrahydro-2H-4,8-methanepyrazolo[4,3-h][2,5,11]benzoxadiazacyclotetradecine-3-carbonitrile]
[2]; Homo sapiens, NCI-H2228, 312 h
  pIC50: < 6.00
[7]; [18]
  pIC50: < 6.00
[7]; [17]
  pIC50: 8.42
[12]; [19]
  pIC50: 9.15
[12]; NCI-H2228
  pIC50: 9.05
[13]; [19]
  pIC50: 9.15

## CN(C)C/C=C/C(=O)Nc1ccc(C(=O)N2CCC[C@@H](Nc3ncc(Cl)c(-c4c[nH]c5ccccc45)n3)C2)cc1 [THZ531]
[1]; Homo sapiens, NCI-H2228
  pIC50: 6.57
[2]; [14]
  pIC50: 6.81
[2]; Table 3
  IC50 Ratio of parental to DTP cells: 1.8

## C[C@@H]1C[C@H]2[C@@H]3CCC4=CC(=O)C=C[C@]4(C)[C@@]3(F)[C@@H](O)C[C@]2(C)[C@@]1(O)C(=O)CO [Dexamethasone]
[1]; Homo sapiens, NCI-H2228
  pIC50: < 5.00
[2]; [14]
  pIC50: 5.88

## C[C@]12C=CC(=O)C=C1CC[C@H]1[C@@H]3C[C@@H](O)[C@](O)(C(=O)CO)[C@@]3(C)C[C@H](O)[C@@]12F [Triamcinolone]
[1]; Homo sapiens, NCI-H2228
  pIC50: < 5.00
[2]; [14]
  pIC50: 5.87

## Cc1cc([C@@H](C)Nc2ccccc2C(=O)O)c2nc(N3CCOCC3)cc(=O)n2c1 [AZD6482]
[1]; Homo sapiens, NCI-H2228
  pIC50: 5.01
[2]; [14]
  pIC50: 5.34
[2]; Table 3
  IC50 Ratio of parental to DTP cells: 2.2

## COc1cc(CCc2cc(NC(=O)c3ccc(N4C[C@@H](C)N[C@@H](C)C4)cc3)n[nH]2)cc(OC)c1 [AZD4547, N-(5-(3,5-dimethoxyphenethyl)-1H-pyrazol-3-yl)-4-((3S, 5R)-3,5-dimethylpiperazin-1-yl)benzamide]
[7]; [16]
  pIC50: < 6.00

## COc1cc([C@@H]2c3cc4c(cc3[C@H](O)[C@H]3COC(=O)[C@@H]23)OCO4)cc(OC)c1OC [PPP, picropodophyllin]
[2]; FIGS. 1A and B
  Cell growth suppressive effects in parental cells and DTP cells compared: substantially equivalent
[2]; Homo sapiens, NCI-H2228, 312 h
  pIC50: 6.74
[7]; [17]
  pIC50: 6.82

## COc1cc(OC)cc(N(CCNC(C)C)c2ccc3ncc(-c4cnn(C)c4)nc3c2)c1 [Erdafitinib, N^1-(3,5-dimethoxyphenyl)-N^2-(1-methylethyl)-N^1-[3-(1-methyl-1H-pyrazol-4-yl)-6-quinoxalinyl]-1,2-ethanediamine]
[2]; by ratio of IC50
  Cell growth suppressive effect on DTP cells among the nine compounds: most potent cell growth suppressive effect
